For one assay, the system named is gastric acid secretion. As to the kind of experiment: Inhibition of Gastric Acid Secretion (Pylorous-Ligated Rat), Shay rat procedure. The conditions noted are these: read-out: % Inhibition of Control Gastric Acid Secretion; for inhibition in vivo at 50 mg/kg: 50 mg./kg. intraduodenal; for inhibition in vivo at 100 mg/kg: 100 mg./kg. intraduodenal. Format: in vivo, rats (male, CFE strain). In outline:
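Male CFE rats were fasted 48 h, then pylorus-ligated under ether. Gastric contents were titrated with 0.02N or 0.04N NaOH to pH 8.4 for acid output, and ≥20% inhibition counted as active.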

Assay [1] relates to bronchospasms elicited by histamine. In words: Bronchodilator Activity (Konzett Assay) against histamine. The assay is classed as in vivo, guinea pigs. The conditions noted are these: Cavia porcellus; three logarithmic cumulative intravenous doses. In outline:
(§1)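 Guinea pigs given intravenous spasmogen (5-hydroxytryptamine, histamine or acetylcholine) per Konzett procedure. ED50 derived from three logarithmic cumulative intravenous doses of test compound.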

Assay [2] has as its system bronchospasms elicited by acetylcholine. As to the kind of experiment: Bronchodilator Activity (Konzett Assay) against acetylcholine. As to conditions: Cavia porcellus; three logarithmic cumulative intravenous doses. The assay is classed as in vivo, guinea pigs. In outline:
as §1

Assay [3] concerns dl-PGE1-induced contraction of gerbil colon. In words: Inhibition of dl-PGE1-Induced Contraction of Gerbil Colon (prostaglandin antagonist action). The assay is classed as cell-based, gerbils (Meriones unguiculatus). The conditions noted are these: Meriones unguiculatus, 1 min. A digest of the protocol:
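Ascending colon from male gerbils, held in De Jalon's solution at 37 °C under 95% O2/5% CO2 with 0.5 g resting tension, contraction recorded isometrically. 1 min compound exposure, then 1 min dl-PGE1 at 200 ng/ml (maximal) or 20 ng/ml (sub-maximal). Approximate ID50 taken from a concentration series against the preceding agonist-only cycle.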

Setting [4] is: sub-maximal challenge, 20 ng./ml. dl-PGE1, 50% inhibition of maximum response, read-out: ID50 vs. 20 ng. of PGE1/ml.
[5] abbreviates: 200 ng./ml. dl-PGE1, read-out: ID50 vs. 200 ng. of PGE1/ml.

≈ marks a conversion by molar mass, not a printed value. Read-outs that look alike come from different tables or passages of the source.

One may read the ED50 as the dose at which the effect has come halfway, by size or by number of responders. The low end stands for an effect at a small dose, the high end for a need for a large dose. With `CCCCCC/C=C/[C@@H]1CCCC(=O)[C@H]1CCCCCCC(=O)O` (relative stereo) [9-oxo-10a-homo-13-trans-prostenoic acid], the inhibition in vivo at 50 mg/kg in the assay with gastric acid secretion came out at 80%. Also, the ED50 in assay [1] was 10.1 mg/kg; in assay [2] it was more than 10.1 mg/kg. The IC50 in assay [3] (setting [4]) was 2.5 to 5 µg/mL (≈ 7.43 to 14.9 µM).
Turning to `CCC/C=C/[C@H]1CCC(=O)[C@@H]1CCCCCCC(=O)O` (relative stereo) [9-oxo-18,19,20-trinor-13-trans-prostenoic acid], in the assay on gastric acid secretion, the inhibition in vivo at 50 mg/kg worked out at 50% and the inhibition in vivo at 100 mg/kg stood at 92%. Moreover, it took a dose of 0.837 mg/kg to reach the 50% effect level in assay [1] (ED50). Also, in assay [2], the ED50 is 6.42 mg/kg. In assay [3] (setting [5]), the IC50 lay in the range of 10 to 15 µg/mL (≈ 35.7 to 53.5 µM).
On to `CC(C)CC/C=C/[C@@H]1CCC(=O)[C@H]1CCCCCCC(=O)O` (relative stereo) [17-methyl-9-oxo-19,20-dinor-13-trans-prostenoic acid], for which the inhibition in vivo at 100 mg/kg with gastric acid secretion is 28%. Moreover, the median effective dose (ED50) in assay [1] is 1.07 mg/kg; in assay [2], 4.3 mg/kg. For the same compound, the IC50 in assay [3] (setting [4]) was in the range of 0.25 to 0.5 µg/mL (≈ 0.81 to 1.62 µM).
The like results for `CC/C=C\CC/C=C/[C@@H]1CCC(=O)[C@H]1CCCCCCC(=O)O` (relative stereo) [9-oxo-13-trans-17-cis-prostadienoic acid] were, in that order, 21%, 0.65 mg/kg, 6 mg/kg and 2.5 to 5 µg/mL (≈ 7.8 to 15.6 µM).
As to `O=C(O)CCCCCC[C@@H]1C(=O)CC[C@H]1/C=C/CCCCl` (relative stereo) [20-chloro-9-oxo-17,18,19-trinor-13-trans-prostenoic acid], the inhibition in vivo at 100 mg/kg with gastric acid secretion came to 34%. The median effective dose (ED50) was 0.928 mg/kg in assay [1] and 3.87 mg/kg in assay [2]. Also, in assay [3] (setting [4]), the IC50 lay in the range of 1 to 2.5 µg/mL (≈ 3.18 to 7.94 µM).
Regarding `CCCCC/C=C/[C@H]1CCC(=O)[C@@H]1CCCCCCC(=O)O` (relative stereo) [9-oxo-20-nor-13-trans-prostenoic acid], the inhibition in vivo at 100 mg/kg in the assay on gastric acid secretion came out at 49%. The figures for the ED50 in assay [1] and in assay [2] were 0.126 mg/kg and 1.17 mg/kg, respectively. For the same compound, in assay [3] (setting [4]), the IC50 worked out at 5 µg/mL (≈ 16.2 µM).
With `CCCCCC/C=C/[C@H]1CCC(=O)[C@@H]1CCCCCCC(=O)O` (relative stereo) [9-oxo-13-trans-prostenoic acid], the inhibition in vivo at 200 mg/kg with gastric acid secretion (200 mg./kg. intraduodenal) is 69%. The values for the 50% effective dose (ED50) in assay [1] and in assay [2] were 0.232 mg/kg and 1.02 mg/kg, respectively. For the same compound, the figures for the IC50 in assay [3] (setting [5]) and in assay [3] (setting [4]) were 9 to 10 µg/mL (≈ 27.9 to 31 µM) and 1.5 to 2 µg/mL (≈ 4.65 to 6.2 µM), respectively.
`CCCCCCC/C=C/[C@@H]1CCC(=O)[C@H]1CCCCCCC(=O)O` (relative stereo) [20-methyl-9-oxo-13-trans-prostenoic acid]: in the assay with gastric acid secretion, the inhibition in vivo at 100 mg/kg was 34%. The ED50 in assay [1] was determined as 0.126 mg/kg; in assay [2], 2.44 mg/kg. Moreover, in assay [3] (setting [4]), the IC50 was in the range of 2 to 2.5 µg/mL (≈ 5.94 to 7.43 µM).
The like results for `O=C(O)CCCCCC[C@H]1C(=O)CC[C@@H]1/C=C/CCCCCCCl` (relative stereo) [20-chloro-9-oxo-13-trans-prostenoic acid] were, in that order, 56%, 1.22 mg/kg, 4.82 mg/kg and 5 to 10 µg/mL (≈ 14 to 28 µM).

These data come from US4044043A, “Derivatives of 9-oxo-13-trans-prostenoic acid esters” (American Cyanamid Company, priority 1975, dated 1977).
